The source of these data is patent US20230097700A1, “AZETIDINE SULFONAMIDE COMPOUND” (DAIICHI SANKYO COMPANY, LIMITED, priority 2019, published 2023).

Molecules are shown by their SMILES. Counter-ions that a name gives are not always drawn.

In this assay the test system is activated T cells (CD4+ T cells derived from the mouse spleen). Put plainly: Incorporation of 3H-thymidine into activated T cells. The class given is cell-based, mouse (C57BL/6J). The settings on record: 3H-thymidine incorporation, mouse spleen CD4+ T cells activated with Dynabeads Mouse T-Activator CD3/CD28. On the procedure: Effect of a test substance on incorporation of ^3H-thymidine was evaluated using T cells derived from the mouse spleen. The spleen was excised out from a C57BL/6J mouse euthanized, cut into pieces, ground on a cell strainer (40 μm mesh) and centrifuged to collect spleen cells. CD4+ T cells were isolated from the spleen cells by use of EasySep Mouse CD4+ T cell isolation kit (STEMCELL Technologies). CD4+ T cells were seeded to a 96-well round-bottom plate. Test substance dissolved in DMSO (dimethyl sulfoxide) or vehicle (DMSO) was added to culture medium and Dynabeads Mouse T-Activator CD3/CD28 (Thermo Fisher Scientific Inc.) was added. Culture was carried out at 37° C. in 5% CO2. After culture was carried out for 24 hours, ^3H-thymidine (PerkinElmer) diluted with the culture medium was added to individual wells. Culture was further carried out overnight at 37° C. in 5% CO2. In order to measure ^3H-thymidine incorporated in nuclei of the cells, the cells were collected on a filter plate UniFilter-96 GF/B (PerkinElmer) by use of a FilterMate Universal Harvester (PerkinElmer). After the filter plate was placed in a dryer and allowed to stand still for 2 hours or more, scintillation cocktail MicroScint-O (PerkinElmer) was added and radioactivity was measured by TopCount NXT (PerkinElmer). With the radioactivity of a group not containing a test substance being specified as 100% and the radioactivity of a group not activated being specified as 0%, relative radioactivity values of individual wells to which the test substance was added (proliferation rate, % of vehicle) were calculated. The values of “% of vehicle” were entered in analysis software Prism (Version 4.03, GraphPad Software). “Nonlinear regression Log (inhibitor) vs reaction variable tilt” was selected and sigmoid type-fitting (Bottom=0, Top=100) was carried out to calculate 50% inhibition concentration (IC50). The compound of the present invention suppresses ^3H-thymidine incorporation in activated T cells.
On the technique in general: Uptake of a labelled nucleoside into DNA is a usual measure of proliferation.
`N[C@@H](Cc1cccc(S(=O)(=O)N2CC(Oc3ccc(Cl)cc3)(c3ccc(F)c(F)c3)C2)c1)C(=O)O` [Example 36, (2S)-2-Amino-3-{3-[3-(4-chlorophenoxy)-3-(3,4-difluorophenyl)azetidin-1-sulfonyl]phenyl}propanoic acid monohydrochloride] came in with a concentration for half-maximal inhibition (IC50) of 19 nM.

Regarding `N[C@@H](Cc1cccc(S(=O)(=O)N2CC(Oc3ccc(F)cc3)(c3ccc(F)c(F)c3)C2)c1)C(=O)O` [Example 37, (2S)-2-Amino-3-{3-[3-(3,4-difluorophenyl)-3-(4-fluorophenoxy)azetidin-1-sulfonyl]phenyl}propanoic acid monohydrochloride], the midpoint of inhibition, the IC50, lay at 24 nM.

`N#Cc1ccc(OC2(c3ccc(F)c(F)c3)CN(S(=O)(=O)c3cccc(C[C@H](N)C(=O)O)c3)C2)cc1` [Example 38, (2S)-2-Amino-3-{3-[3-(4-cyanophenoxy)-3-(3,4-difluorophenyl)azetidin-1-sulfonyl]phenyl}propanoic acid monohydrochloride]: the IC50 amounted to 17 nM.

As to `NC(=O)c1ccc(OC2(c3ccc(F)c(F)c3)CN(S(=O)(=O)c3cccc(C[C@H](N)C(=O)O)c3)C2)cc1` [Example 39, (2S)-2-Amino-3-{3-[3-(4-carbamoylphenoxy)-3-(3,4-difluorophenyl)azetidin-1-sulfonyl]phenyl}propanoic acid monohydrochloride], the IC50 was 14 nM.

The molecule `Cc1cccc(OC2(c3ccccc3)CN(S(=O)(=O)c3cccc(C[C@H](N)C(=O)O)c3)C2)c1` [Example 43, (2S)-2-Amino-3-(3-{[3-(3-methylphenoxy)-3-phenylazetidin-1-yl]sulfonyl}phenyl)propanoic acid monohydrochloride] came in with an IC50 of 18 nM.

As to `Cc1ccc(OC2(c3ccccc3)CN(S(=O)(=O)c3cccc(C[C@H](N)C(=O)O)c3)C2)cc1F` [Example 45, (2S)-2-Amino-3-(3-{[3-(3-fluoro-4-methylphenoxy)-3-phenylazetidin-1-yl]sulfonyl}phenyl)propanoic acid monoformate], the IC50 came to 23 nM.

With `Cc1ccc(OC2(c3ccc(F)cc3)CN(S(=O)(=O)c3cccc(C[C@H](N)C(=O)O)c3)C2)cn1` [Example 46, (2S)-2-Amino-3-[3-({3-(4-fluorophenyl)-3-[(6-methylpyridin-3-yl)oxy]azetidin-1-yl}sulfonyl)phenyl]propanoic acid dihydrochloride], the IC50 is 31 nM.

For the molecule `N[C@@H](Cc1cccc(S(=O)(=O)N2CC(Oc3ccc(F)cc3)(c3ccc(F)cn3)C2)c1)C(=O)O` [Example 47, (2S)-2-Amino-3-(3-{[3-(4-fluorophenoxy)-3-(5-fluoropyridin-2-yl)azetidin-1-yl]sulfonyl}phenyl)propanoic acid dihydrochloride], inhibition was half-maximal at 34 nM (IC50).

Take `CCc1ccc(OC2(c3ccc(F)cc3)CN(S(=O)(=O)c3cccc(C[C@H](N)C(=O)O)c3)C2)cn1` [Example 48, (2S)-2-Amino-3-[3-({3-[(6-ethylpyridin-3-yl)oxy]-3-(4-fluorophenyl)azetidin-1-yl}-sulfonyl)phenyl]propanoic acid dihydrochloride]: the IC50 stood at 22 nM.

Consider `Cc1ncc(OC2(c3ccc(F)cc3)CN(S(=O)(=O)c3cccc(C[C@H](N)C(=O)O)c3)C2)cc1F` [Example 49, (2S)-2-Amino-3-[3-({3-[(5-fluoro-6-methylpyridin-3-yl)oxy]-3-(4-fluorophenyl)azetidin-1-yl}sulfonyl)phenyl]propanoic acid dihydrochloride], for which half-maximal inhibition (IC50) required 36 nM.

Take `Cc1ccc(OC2(c3ccc(F)cn3)CN(S(=O)(=O)c3cccc(C[C@H](N)C(=O)O)c3)C2)cc1` [Example 50, (2S)-2-Amino-3-(3-{[3-(5-fluoropyridin-2-yl)-3-(4-methylphenoxy)azetidin-1-yl]sulfonyl}phenyl)propanoic acid dihydrochloride]: it took 24 nM to reach half-maximal inhibition (IC50).

As for `N[C@@H](Cc1cccc(S(=O)(=O)N2CC(Oc3ccc(B(O)O)cc3)(c3ccccc3)C2)c1)C(=O)O` [Example 52, (2S)-2-Amino-3-(3-{[3-(4-boronophenoxy)-3-phenylazetidin-1-yl]sulfonyl}phenyl)propanoic acid monoformate], the IC50 was determined as 6.6 nM.

In turn, `N[C@@H](Cc1cccc(S(=O)(=O)N2CC(Oc3ccc(Cl)cc3)(c3ccc(Cl)cc3)C2)c1)C(=O)O` [Example 53, (2S)-2-Amino-3-(3-{[3-(4-chlorophenoxy)-3-(4-chlorophenyl)azetidin-1-yl]sulfonyl}phenyl)propanoic acid monoformate] came in with an IC50 of 8.7 nM.

As for `N[C@@H](Cc1cccc(S(=O)(=O)N2CC(Oc3ccc(F)cc3)(c3ccc(Cl)cc3)C2)c1)C(=O)O` [Example 54, (2S)-2-Amino-3-(3-{[3-(4-chlorophenyl)-3-(4-fluorophenoxy)azetidin-1-yl]sulfonyl}phenyl)propanoic acid monoformate], it took 4.8 nM to reach half-maximal inhibition (IC50).

Regarding `N[C@@H](Cc1cccc(S(=O)(=O)N2CC(Oc3cccc(F)c3)(c3ccc(Cl)cc3)C2)c1)C(=O)O` [Example 55, (2S)-2-Amino-3-(3-{[3-(4-chlorophenyl)-3-(3-fluorophenoxy)azetidin-1-yl]sulfonyl}phenyl)propanoic acid monoformate], the IC50 is 7.8 nM.

Consider `CCn1cc(OC2(c3ccc(F)cc3)CN(S(=O)(=O)c3cccc(C[C@H](N)C(=O)O)c3)C2)cn1` [Example 56, (2S)-2-Amino-3-[3-({3-[(1-ethyl-1H-pyrazol-4-yl)oxy]-3-(4-fluorophenyl)azetidin-1-yl)sulfonyl)phenyl]propanoic acid dihydrochloride], for which half-maximal inhibition (IC50) was put at 240 nM.

Molecule `COc1ccc(OC2(c3ccc(F)cc3)CN(S(=O)(=O)c3cccc(C[C@H](N)C(=O)O)c3)C2)cn1` [Example 57, (2S)-2-Amino-3-[3-({3-(4-fluorophenyl)-3-[(6-methoxypyridin-3-yl)oxy]azetidin-1-yl}sulfonyl)phenyl]propanoic acid monoformate] came in with an IC50 of 16 nM.

`N[C@@H](Cc1cccc(S(=O)(=O)N2CC(Oc3ccc4c(c3)COB4O)(c3ccc(F)cc3)C2)c1)C(=O)O` [Example 58, (2S)-2-Amino-3-[3-({3-(4-fluorophenyl)-3-[(1-hydroxy-1,3-dihydro-2,1-benzoxaborol-5-yl)oxy]azetidin-1-yl)sulfonyl)phenyl]propanoic acid monoformate] displayed an IC50 of 16 nM.

`Cc1ccc(C2(Oc3cccc(F)c3)CN(S(=O)(=O)c3cccc(C[C@H](N)C(=O)O)c3)C2)cc1` [Example 59, (2S)-2-Amino-3-(3-{[3-(3-fluorophenoxy)-3-(4-methylphenyl)azetidin-1-yl]sulfonyl}phenyl)propanoic acid monoformate] returned an IC50 of 18 nM.

Molecule `CC(=O)c1ccc(OC2(c3ccc(F)cn3)CN(S(=O)(=O)c3cccc(C[C@H](N)C(=O)O)c3)C2)cc1` [Example 60, (2S)-3-(3-{[3-(4-acetylphenoxy)-3-(5-fluoropyridin-2-yl)azetidin-1-yl]sulfonyl}phenyl)-2-aminopropanoic acid dihydrochloride] registered an IC50 of 14 nM.

Take `NC(=O)c1ccc(OC2(c3ccc(Cl)cc3)CN(S(=O)(=O)c3cccc(C[C@H](N)C(=O)O)c3)C2)cc1` [Example 61, (2S)-2-Amino-3-(3-{[3-(4-carbamoylphenoxy)-3-(4-chlorophenyl)azetidin-1-yl]sulfonyl}phenyl)propanoic acid monohydrochloride]: the IC50 was 9.9 nM.

Molecule `NC(=O)c1ccc(OC2(c3ccc(F)cc3)CN(S(=O)(=O)c3cccc(C[C@H](N)C(=O)O)c3)C2)cn1` [Example 86a, dihydrochloride] registered an IC50 of 23 nM.

For the molecule `N#Cc1ccc(OC2(c3ccc(F)cc3)CN(S(=O)(=O)c3cccc(C[C@H](N)C(=O)O)c3)C2)cn1` [Example 86b, monoformate], the half-inhibitory concentration (IC50) was found to be 17 nM.

`N[C@@H](Cc1cccc(S(=O)(=O)N2CC(Oc3ccc(Cl)cc3)(c3ccccc3)C2)c1)C(=O)O` [Example 87] displayed an IC50 of 19 nM.

Molecule `N[C@@H](Cc1cccc(S(=O)(=O)N2CC(Oc3ccccc3)(c3ccccc3)C2)c1)C(=O)O` [Example 88, (2S)-2-Amino-3-(3-{[3-(3-phenoxy)-3-phenylazetidin-1-yl]sulfonyl}phenyl)propanoic acid] returned an IC50 of 15 nM.

Molecule `N[C@@H](Cc1cccc(S(=O)(=O)N2CC(Oc3ccc4[nH]ncc4c3)(c3ccccc3)C2)c1)C(=O)O` [Example 90, (2S)-2-Amino-3-(3-{3-[(1H-indazol-5-yl)oxy]-3-phenylazetidin-1-sulfonyl}phenyl)propanoic acid] gave an IC50 of 3.4 nM.

For orientation: IC50 means the concentration that gives 50% inhibition. Higher therefore signals weaker potency.
